20 molecules from patent US4710571A, “1H-imidazol-1-ethanol esters” (Gist-Brocades N.V., priority 1983, dated 1987) can be followed below.

One data set has as its system ear sebaceous glands. Description: lipid (sebum) synthesis in ear sebaceous glands of androgen-stimulated female hamsters, ear biopsies incubated with radioactive acetate. Type of data set: in vivo, hamster. The settings on record: for inhibition in vivo at 100 µg/day / lipid synthesis inhibition: dose 100 μg per day; for inhibition in vivo at 100 µg/day / inhibition in vivo at 500 µg/day / lipid synthesis inhibition: androgen-stimulated female hamsters, percentages may rise over 100%; for inhibition in vivo at 500 µg/day: dose 500 μg per day. The method, then: The sebum synthesis inhibiting activities of 1H-imidazole-1-ethanol and the esters of formula I were established in a number of animal species and particularly in the hamster much research has been carried out. Androgens administered to female hamsters stimulate the sebum synthesis in ear sebaceous glands and the extent of sebum synthesis is determined by incubating ear biopsies with radioactive acetate (Hall D. W. R. et al, Hormonal Control of Hamster Ear Sebaceous Gland Lipogenesis, Arch. Dermatol Res., 275, 1 (1983)). The test was based on the conversion of the added radioactive acetate into lipids which after extraction with hexane can be determined in a scintillation counter. In the following Table, the inhibition percentages of a number of substances are shown and the percentages may rise over 100%. A very strong activity of a compound will inhibit both the activity stimulated by androgen and the basal sebum synthesis activity of the sebaceous gland.

The subject of data set [1] is lipid synthesis in other organs. Description: lipid synthesis inhibition in organs other than the sebaceous glands. Type of data set: in vivo. The settings on record: animal tests.
A short description of another data set: skin irritation. Format: in vivo, human. The settings on record: in humans.
A short description of a further data set: penetration of the skin. Type of data set: in vivo, human. The settings on record: in humans.
The test system of another data set is sebum secretion. Put plainly: inhibition of sebum secretion in humans. Type of data set: in vivo, human.
In the next data set the test system is hormonal activity. Put plainly: hormonal activity in animal tests. Format: in vivo.

Structures can show the parent of a compound that is named as a salt.

As for `O=C(CCc1ccccc1)OCCn1ccnc1` [C6 H5 (CH2)2], the inhibition in vivo at 100 µg/day in the data set with ear sebaceous glands (Mesocricetus auratus) was 76%.

In the case of `CCCC(=O)OCCn1ccnc1` [(CH2)2 CH3], the inhibition in vivo at 100 µg/day in the data set on ear sebaceous glands (Mesocricetus auratus) amounted to 106%.

`CC(C)(C)c1ccc(C(=O)OCCn2ccnc2)cc1` [4-tBuC6 H4, base]: in the data set on ear sebaceous glands (Mesocricetus auratus), the inhibition in vivo at 100 µg/day was determined as 67%.

As for `O=C(C=Cc1ccccc1)OCCn1ccnc1` [C6 H5 --CH=CH], the inhibition in vivo at 100 µg/day with ear sebaceous glands (Mesocricetus auratus) stood at 59%.

Turning to `CC(C)(C)c1ccc(C(=O)OCCn2ccnc2)cc1` [4-tBuC6 H4, HCl], the inhibition in vivo at 500 µg/day in the data set with ear sebaceous glands (Mesocricetus auratus) was found to be 81%.

With `Cc1ccc(C(=O)OCCn2ccnc2)cc1` [4-CH3 C6 H4, maleate], the inhibition in vivo at 500 µg/day in the data set on ear sebaceous glands (Mesocricetus auratus) came to 92%.

For the molecule `O=C(OCCn1ccnc1)c1ccc(Cl)cc1Cl` [2,4-Cl2 C6 H3, base], in the data set with ear sebaceous glands, the lipid synthesis inhibition amounted to 60%.

`Cc1ccc(C(=O)OCCn2ccnc2)cc1` [4-CH3 C6 H4, base]: in the data set on ear sebaceous glands (Mesocricetus auratus), the inhibition in vivo at 100 µg/day worked out at 91%.

As to `O=C(OCCn1ccnc1)c1cccs1` [2-thiophene, 2-(1H-imidazol-1-yl)-ethyl 2-thiophenecarboxylate], in the data set on ear sebaceous glands (Mesocricetus auratus), the inhibition in vivo at 100 µg/day is 89%.

Take `CC(=O)OCCn1ccnc1` [CH3]: in the data set with ear sebaceous glands (Mesocricetus auratus), the inhibition in vivo at 100 µg/day came out at 82%.

Take `O=C(O)/C=C\C(=O)O.O=C(OCCn1ccnc1)c1ccc(Cl)cc1Cl` [2,4-Cl2 C6 H3, maleate, 2-(1H-imidazol-1-yl)-ethyl 2,4-dichlorobenzoate (Z)-2-butenedioate(1:1)]: in the data set on ear sebaceous glands, the lipid synthesis inhibition came to 37%.

As to `O=C(OCCn1ccnc1)c1ccc(C(F)(F)F)cc1` [4-CF3 C6 H4], in the data set with ear sebaceous glands (Mesocricetus auratus), the inhibition in vivo at 500 µg/day worked out at 70%.

On to `CC1=C(/C=C/C(C)=C/C=C/C(C)=C/C(=O)OCCn2ccnc2)C(C)(C)CCC1` [retinoic acid, 2-(1H-imidazol-1-yl)-ethyl retinoate ethanedioate (2:1)], for which, in the data set with ear sebaceous glands (Mesocricetus auratus), the inhibition in vivo at 100 µg/day worked out at 39%.

As to `COc1ccc(C(=O)OCCn2ccnc2)cc1` [4-CH3 OC6 H4], the inhibition in vivo at 100 µg/day in the data set on ear sebaceous glands (Mesocricetus auratus) was 83%.

On to `OCCn1ccnc1` [imidazolethanol, 1H-imidazole-1-ethanol], for which, in the data set on ear sebaceous glands (Mesocricetus auratus, read-out: lipid synthesis inhibition), the inhibition in vivo at 1000 µg/day was found to be 37%.

Take `O=C(OCCn1ccnc1)c1ccncc1` [4-pyridyl]: the inhibition in vivo at 100 µg/day in the data set with ear sebaceous glands (Mesocricetus auratus) was determined as 44%.

With `O=C(OCCn1ccnc1)c1ccccc1` [C6 H5, 2-(1H-imidazol-1-yl)-ethyl benzoate], the “lipid synthesis inhibition in other organs” value in data set [1] is “no lipid synthesis inhibition in other organs”. In addition, in “skin irritation”, the irritation result is recorded as “little irriation”. Moreover, the inhibition in vivo at 100 µg/day with ear sebaceous glands (Mesocricetus auratus) came out at 82%. Moreover, in “penetration of the skin”, the “penetration of the skin” value is listed as “good penetration of the skin”. In the data set with sebum secretion, the “inhibition of the sebum secretion” value is given as “good inhibition of the sebum secretion”. Further, the hormonal activity entry with hormonal activity is recorded as “no lipid synthesis inhibition in other organs or hormonal activity were found”.

As for `CC(C)(C)C(=O)OCCn1ccnc1` [(CH3)3 --C--], in the data set on ear sebaceous glands (Mesocricetus auratus), the inhibition in vivo at 100 µg/day came out at 72%.

Regarding `CCCCCCCCCCCCCCCC(=O)OCCn1ccnc1` [CH3 (CH2)14 --, 2-(1H-imidazol-1-yl)-ethyl hexadecanoate ethanedioate (1:1)], the inhibition in vivo at 100 µg/day in the data set on ear sebaceous glands (Mesocricetus auratus) was determined as 44%.

`O=C(OCCn1ccnc1)c1ccc(Cl)cc1` [4-ClC6 H4]: the inhibition in vivo at 500 µg/day in the data set on ear sebaceous glands (Mesocricetus auratus) was 49%.
